Measured values as given in patent publication US6737383B1, “Herbicidal oxadiazolidines” (priority 1999, dated 2004).

What was measured:
morningglory = assay: Test B pre/postemergence morningglory; type: in vivo, Ipomoea hederacea
Summary of the method: (§1)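 Herbicidal effect was estimated by eye on a ten-point control scale after plants spent twelve to sixteen days in a greenhouse following soil or foliar treatment. Foliar sprays targeted plants at one to four leaves; all doses were formulated in a non-phytotoxic solvent with surfactant.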

corn = assay: Test B pre/postemergence corn; type: in vivo, Zea mays
Summary of the method: as §1

rape = assay: Test B pre/postemergence rape; type: in vivo, Brassica napus
Summary of the method: as §1

velvetleaf = assay: Test B pre/postemergence velvetleaf; type: in vivo, Abutilon theophrasti
Summary of the method: as §1

wild oat = assay: Test B pre/postemergence wild oat; type: in vivo, Avena fatua
Summary of the method: as §1

surinam grass = assay: Test B pre/postemergence surinam grass; type: in vivo, Brachiaria decumbens
Summary of the method: as §1

pigweed = assay: Test B pre/postemergence pigweed; type: in vivo, Amaranthus retroflexus
Summary of the method: as §1

rice = assay: Test B flood test rice; type: in vivo, Oryza sativa
Summary of the method: (§2)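 Flood test on plants grown to the 2-leaf stage; treated plants kept in greenhouse twelve to sixteen days, then visually rated against controls on a 0 (no effect) to 10 (complete control) scale.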

crabgrass = assay: Test B pre/postemergence crabgrass; type: in vivo, Digitaria sanguinalis
Summary of the method: as §1

sugar beet = assay: Test B pre/postemergence sugar beet; type: in vivo, Beta vulgaris
Summary of the method: as §1

blackgrass = assay: Test B pre/postemergence blackgrass; type: in vivo, Alopecurus myosuroides
Summary of the method: as §1

giant foxtail = assay: Test B pre/postemergence giant foxtail; type: in vivo, Setaria faberii
Summary of the method: as §1

purple nutsedge = assay: Test B pre/postemergence purple nutsedge; type: in vivo, Cyperus rotundus
Summary of the method: as §1

soybean = assay: Test B pre/postemergence soybean; type: in vivo, Glycine max
Summary of the method: as §1

duck salad = assay: Test B flood test duck salad; type: in vivo, Heteranthera limosa
Summary of the method: as §2

cocklebur = assay: Test B pre/postemergence cocklebur; type: in vivo, Xanthium strumarium
Summary of the method: as §1

[1] = Postemergence, Rate 62 g/ha, scale of 0 to 10, 0 is no effect, 10 is complete control
[2] = Postemergence, Rate 125 g/ha, scale 0 to 10, 0 is no effect, 10 is complete control
[3] = Postemergence, Rate 500 g/ha, scale 0 to 10, 0 is no effect, 10 is complete control
[4] = Preemergence, Rate 62 g/ha, scale of 0 to 10 where 0 is no effect and 10 is complete control
[5] = Preemergence, Rate 125 g/ha, scale 0 to 10, 0 is no effect, 10 is complete control
[6] = Preemergence, Rate 500 g/ha, scale of 0 to 10 where 0 is no effect and 10 is complete control
[7] = Rate 250 g/ha, Postemergence, scale of 0 to 10 where 0 is no effect and 10 is complete control
[8] = Rate 62 g/ha, flood test species, Pre-emergence, visual evaluation after twelve to sixteen days
[9] = Rate 125 g/ha, under heading Pre-emergence, flood test species, visual evaluation after twelve to sixteen days
[10] = Rate 250 g/ha, Pre-emergence (flood test species), scale 0 to 10, 0 is no effect, 10 is complete control
[11] = Rate 500 g/ha, Pre-emergence section of Table B, 0 to 10 scale (0 no effect, 10 complete control)

CC(C)N(C(=O)n1oc(=O)n(CC2CCC2)c1=O)c1ccc(F)cc1F [Compound 521]
Morningglory plant response rating (morningglory; [1]): 3 | Morningglory plant response rating (morningglory; [2]): 4 | Plant response rating, Morningglory (morningglory; [3]): 5 | Plant response rating, Morningglory (morningglory; [4]): 0 | Morningglory plant response rating (morningglory; [5]): 0 | Morningglory plant response rating (0 to 10 scale) (morningglory; Preemergence, Rate 250 g/ha): 0 | Morningglory plant response rating (morningglory; [6]): 0 | Plant response rating, Morningglory (morningglory; [7]): 3 | Corn plant response rating (corn; [1]): 0 | Corn plant response rating (corn; [2]): 0 | Plant response rating, Corn (corn; [3]): 0 | Plant response rating, Corn (corn; [4]): 0 | Corn plant response rating (corn; [5]): 0 | Corn plant response rating (0 to 10 scale) (corn; Preemergence, Rate 250 g/ha): 0 | Corn plant response rating (corn; [6]): 3 | Plant response rating, Corn (corn; [7]): 0 | Rape plant response rating (rape; [1]): 0 | Rape plant response rating (rape; [2]): 0 | Plant response rating, Rape (rape; [3]): 3 | Plant response rating, Rape (rape; [4]): 0 | Rape plant response rating (rape; [5]): 0 | Rape plant response rating (0 to 10 scale) (rape; Preemergence, Rate 250 g/ha): 2 | Rape plant response rating (rape; [6]): 2 | Plant response rating, Rape (rape; [7]): 2 | Velvetleaf plant response rating (velvetleaf; [1]): 0 | Velvetleaf plant response rating (velvetleaf; [2]): 0 | Plant response rating, Velvetleaf (velvetleaf; [3]): 3 | Plant response rating, Velvetleaf (velvetleaf; [4]): 0 | Velvetleaf plant response rating (velvetleaf; [5]): 0 | Velvetleaf plant response rating (0 to 10 scale) (velvetleaf; Preemergence, Rate 250 g/ha): 2 | Velvetleaf plant response rating (velvetleaf; [6]): 3 | Plant response rating, Velvetleaf (velvetleaf; [7]): 2 | Wild oats plant response rating (wild oat; [1]): 0 | Wild oats plant response rating (wild oat; [2]): 0 | Plant response rating, Wild oats (wild oat; [3]): 2 | Plant response rating, Wild oats (wild oat; [4]): 0 | Wild oats plant response rating (wild oat; [5]): 0 | Wild oats plant response rating (0 to 10 scale) (wild oat; Preemergence, Rate 250 g/ha): 0 | Wild oats plant response rating (wild oat; [6]): 2 | Plant response rating, Wild oats (wild oat; [7]): 0 | B. signalgrass plant response rating (surinam grass; [1]): 0 | B. signalgrass plant response rating (surinam grass; [2]): 0 | Plant response rating, B. signalgrass (surinam grass; [3]): 3 | Plant response rating, B. signalgrass (surinam grass; [4]): 0 | B. signalgrass plant response rating (surinam grass; [5]): 0 | B. signalgrass plant response rating (0 to 10 scale, 0 is no effect, 10 is complete control) (surinam grass; Preemergence, Rate 250 g/ha): 0 | B. signalgrass plant response rating (surinam grass; Preemergence, Rate 500 g/ha, scale 0 to 10, 0 is no effect, 10 is complete control): 9 | Plant response rating, B. signalgrass (surinam grass; [7]): 0 | Redroot pigweed plant response rating (pigweed; [1]): 0 | Redroot pigweed plant response rating (pigweed; [2]): 0 | Plant response rating, Redroot pigweed (pigweed; [3]): 4 | Plant response rating, Redroot pigweed (pigweed; [4]): 0 | Redroot pigweed plant response rating (pigweed; [5]): 0 | Redroot pigweed plant response rating (0 to 10 scale) (pigweed; Preemergence, Rate 250 g/ha): 0 | Redroot pigweed plant response rating (pigweed; [6]): 0 | Plant response rating, Redroot pigweed (pigweed; [7]): 0 | Plant response rating, Rice (0 to 10 scale, 0 is no effect, 10 is complete control) (rice; [8]): 0 | Rice plant response rating (0 to 10 scale, 0 is no effect, 10 is complete control) (rice; [9]): 0 | Rice plant response rating (rice; [10]): 0 | Rice plant response rating (rice; [11]): 0 | Crabgrass plant response rating (crabgrass; [1]): 2 | Crabgrass plant response rating (crabgrass; [2]): 4 | Plant response rating, Crabgrass (crabgrass; [3]): 10 | Plant response rating, Crabgrass (crabgrass; [4]): 10 | Crabgrass plant response rating (crabgrass; [5]): 10 | Crabgrass plant response rating (0 to 10 scale) (crabgrass; Preemergence, Rate 250 g/ha): 10 | Crabgrass plant response rating (crabgrass; [6]): 10 | Plant response rating, Crabgrass (crabgrass; [7]): 10 | Sugarbeets plant response rating (sugar beet; [1]): 0 | Sugarbeets plant response rating (sugar beet; [2]): 0 | Plant response rating, Sugarbeets (sugar beet; [3]): 4 | Plant response rating, Sugarbeets (sugar beet; [4]): 0 | Sugarbeets plant response rating (sugar beet; [5]): 0 | Sugarbeets plant response rating (0 to 10 scale) (sugar beet; Preemergence, Rate 250 g/ha): 3 | Sugarbeets plant response rating (sugar beet; [6]): 3 | Plant response rating, Sugarbeets (sugar beet; [7]): 0 | Blackgrass plant response rating (blackgrass; [1]): 2 | Blackgrass plant response rating (blackgrass; [2]): 2 | Plant response rating, Blackgrass (blackgrass; [3]): 9 | Plant response rating, Blackgrass (blackgrass; [4]): 0 | Blackgrass plant response rating (blackgrass; [5]): 0 | Blackgrass plant response rating (0 to 10 scale) (blackgrass; Preemergence, Rate 250 g/ha): 0 | Blackgrass plant response rating (blackgrass; [6]): 3 | Plant response rating, Blackgrass (blackgrass; [7]): 7 | Giant foxtail plant response rating (giant foxtail; [1]): 4 | Giant foxtail plant response rating (giant foxtail; [2]): 8 | Plant response rating, Giant foxtail (giant foxtail; [3]): 9 | Plant response rating, Giant foxtail (giant foxtail; [4]): 10 | Giant foxtail plant response rating (giant foxtail; [5]): 10 | Giant foxtail plant response rating (0 to 10 scale) (giant foxtail; Preemergence, Rate 250 g/ha): 10 | Giant foxtail plant response rating (giant foxtail; [6]): 10 | Plant response rating, Giant foxtail (giant foxtail; [7]): 9 | Nutsedge plant response rating (purple nutsedge; [1]): 0 | Nutsedge plant response rating (purple nutsedge; [2]): 0 | Plant response rating, Nutsedge (purple nutsedge; [3]): 0 | Plant response rating, Nutsedge (purple nutsedge; [4]): 0 | Nutsedge plant response rating (purple nutsedge; [5]): 0 | Nutsedge plant response rating (0 to 10 scale) (purple nutsedge; Preemergence, Rate 250 g/ha): 0 | Nutsedge plant response rating (purple nutsedge; [6]): 0 | Plant response rating, Nutsedge (purple nutsedge; [7]): 0 | Soybean plant response rating (soybean; [1]): 4 | Soybean plant response rating (soybean; [2]): 4 | Plant response rating, Soybean (soybean; [3]): 5 | Plant response rating, Soybean (soybean; [4]): 0 | Soybean plant response rating (soybean; [5]): 0 | Soybean plant response rating (0 to 10 scale) (soybean; Preemergence, Rate 250 g/ha): 0 | Soybean plant response rating (soybean; [6]): 0 | Plant response rating, Soybean (soybean; [7]): 5 | Plant response rating, Ducksalad (0 to 10 scale, 0 is no effect, 10 is complete control) (duck salad; [8]): 0 | Ducksalad plant response rating (0 to 10 scale, 0 is no effect, 10 is complete control) (duck salad; [9]): 0 | Ducksalad plant response rating (duck salad; [10]): 0 | Ducksalad plant response rating (duck salad; [11]): 0 | Cocklebur plant response rating (cocklebur; [1]): 0 | Cocklebur plant response rating (cocklebur; [2]): 0 | Plant response rating, Cocklebur (cocklebur; [3]): 0 | Plant response rating, Cocklebur (cocklebur; [4]): 0 | Cocklebur plant response rating (cocklebur; [5]): 0 | Cocklebur plant response rating (0 to 10 scale) (cocklebur; Preemergence, Rate 250 g/ha): 0 | Cocklebur plant response rating (cocklebur; [6]): 0 | Plant response rating, Cocklebur (cocklebur; [7]): 0
